Test results reported in patent publication US20100215588A1, “THERAPEUTIC DELIVERY OF INHIBITORY NUCLEIC ACID MOLECULES TO THE RESPIRATORY SYSTEM” (priority 2007, published 2010).

How the values were obtained:
A549 lung tumors = assay: A549 lung tumor growth after inhaled Nrf2 siRNA alone or with carboplatin; assay type: in vivo, SCID-Beige mice; details: lung tumor weights; siRNA 100 μg/dose by nebulizer three times a week for 4 weeks; carboplatin 30 mg/kg i.p. twice/week
Description: (§1) Tumor Xenografts: A549 cells (5×10^6) were injected into the hind leg of male athymic nude mice and the tumor was measured weekly. The tumor volumes were measured using the following formula: [length (mm)×width (mm)×width (mm)×0.52]. In the lung metastasis experiments, 2×10^6 A549-C8-luc cells were injected into SCID-Beige mice (Charles River, Mass.) intravenously.
(§2) For in vivo experiments, all siRNA compounds were chemically synthesized being stabilized by alternating 2-O′-Me modifications on both strands. The sequence of siRNA targeting human Nrf2 used for in vivo experiments is 5′-UCCCGUUUGUAGAUGACAA-3′ (sense) and 5′-UUGUCAUCUACAAACGGGA-3′ (antisense). The sequence of control siRNA targeting GFP is 5′-[…]-3′ (sense) and 5′-[…]-3′ (antisense).
For aerosol delivery of Nrf2 or GFP siRNA into lung tumors, 100 μg of siRNA duplex diluted in PBS was aerosolized using a nebulizer. Mice were given three dose of siRNA (100 μg/dose) every week, for 4 weeks, using a nebulizer. Intraperitoneal injections of carboplatin were given at a dose of 30 mg/kg body weight twice/week.
(§3) In Vivo Imaging: Animals inoculated with A549-C8-luc cells, which express a luciferase reporter gene, were anesthetized and injected intraperitoneally with 250 ul of luminescent substrate (15 mg/ml stock) D-Luciferin Firefly (Xenogen Cat# XR-1001). The animals were then imaged and analyzed by using the Xenogen IVIS Optical Imaging Device in the Johns Hopkins Oncology Center.
Statistical Analysis-Statistical comparisons were performed by Student's t-tests. A value of p<0.05 was considered statistically significant. Tumor weights and changes in tumor volume were summarized using descriptive statistics. Differences in tumor measures between treatment groups were examined using linear regression models with generalized estimating equations (GEE). The distributions of both tumor measurements were skewed, so log transformations were used.

Nrf2 = assay: ARE-Luc Nrf2-dependent reporter activity in orthotopic lung tumors, in vivo imaging; design: species or system SCID-Beige mice; details: siRNA by nebulizer; mice with A549-C8-luc lung tumors; FIG. 5
Description: as §1, §2
For aerosol delivery of Nrf2 or GFP siRNA into lung tumors, 100 μg of siRNA duplex diluted in PBS was aerosolized using a nebulizer. Mice were given three dose of siRNA (100 μg/dose) every week, for 4 weeks, using a nebulizer. […]
as §3

RTP801 = assay: Short-term (7 day) cigarette smoking model, intralung delivery of RTP801 siRNA; assay type: in vivo, mouse (C57BL6)
Description: CS-induced inflammation was induced by 7 day smoking in 2 groups of C57BL6 mice, 10 mice per group. Group 1: CS+delivery of control siRNA (REDD8) siRNA; Group 2: CS+RTP801 siRNA (REDD14). Control groups of mice were instilled with either type of siRNA but kept in room air conditions. The animals were evaluated as in the above experiment with the Knock-Out mice.
Exposure was carried out (7 h/day, 7 days/week) by burning 2R4F reference cigarettes (2.45 mg nicotine per cigarette; purchased from the Tobacco Research Institute, University of Kentucky, Lexington, Ky., USA) using a smoking machine (Model TE-10, Teague Enterprises, Davis, Calif., USA). Each smoldering cigarette was puffed for 2 s, once every minute for a total of eight puffs, at a flow rate of 1.05 L/min, to provide a standard puff of 35 cm^3. The smoke machine was adjusted to produce a mixture of sidestream smoke (89%) and mainstream smoke (11%) by burning five cigarettes at one time. Chamber atmosphere was monitored for total suspended particulates and carbon monoxide, with concentrations of 90 mg/m3 and 350 ppm, respectively.
Following exposure to CS or instillation of RTP801 expressing plasmid, the mice were anesthetized with sodium pentobarbital. […] The total number of cells in the lavage fluid was determined, and 2×10^4 cells were cytocentrifuged (Shandon Southern Products, Pittsburgh, Pa., USA) onto glass slides and stained with Wright-Giemsa stain. […]
Immunohistochemical staining of active caspase-3 assay was performed using anti-active caspase-3 antibody and the active caspase-3-positive cells were counted with a macro, using Image Pro Plus program. […]
The activity of caspase-3 activity was measured in lung tissue extracts using a fluorometric assay according to the manufacturer's instructions. […] After removal of nuclei and cellular debris, the supernatant (300 μg protein) was then incubated with the pro-fluorescent substrate at room temperature for 1 h and the fluorescence intensity was measured utilizing a Typhoon phosphoimager (Amersham Biosciences, Inc., Piscataway, N.J., USA). […]

[1] = Qualitative distribution of REDD14Cy3.5 siRNA in lung and kidney (fluorescence analysis); assay type: in vivo, cynomolgus monkeys
Description: On Day 15 of the study, two of the available animals (101 and 102) were administered a target dose of 35 mg/kg of a mixture of I5NP and REDD14Cy3.5 (fluorescence-labelled) siRNA via an oronasal mask as a nebulized aerosol generated by the Aeroneb device. A 2.0 L/min dilution airflow was used. The total dose of siRNA administered was calculated, based on the bodyweights and measured respiratory minute volumes of the animals, and on the achieved output of the Aeroneb device using the formulation concentration of 40 mg/mL of siRNA. The administered dose was adjusted by changing the exposure times for the animals
At the time of necropsy following Treatment 2, the lungs, bronchi and trachea of animal 102 were removed from the animal. The lungs were perfused with 4% paraformaldehyde, introduced using a syringe, via the trachea and/or bronchus and stored in this fixative at ambient temperature for a period of approximately 21 hours. Following this, as much as possible of the original fixative fluid was withdrawn by syringe via the trachea/bronchus and replaced with 0.2% paraformaldehyde. The fixed lungs were analyzed for fluorescence distribution.
At the time of necropsy following Treatment 2, the right kidney of animal 102 was removed from the animal. The kidney was dissected into quarters by making one longitudinal and one transverse cut, each to pass through the hilus, and then immersed in 4% paraformaldehyde and refrigerated for approximately 21 hours. Following this, the fixing solution was changed to 0.2% paraformaldehyde and the kidney was analyzed for fluorescence distribution.
Following Treatment 2, lung and kidney samples from animal 102 were analyzed for distribution of fluorescence (from REDD14Cy3.5 siRNA). The results were considered to be qualitative.

[2] = Treatment 2, animal 102, approximately 30 minutes post-end of dosing, qualitative

N.N.O=C([O-])C1(C(=O)[O-])CCC1.[Pt+2] [Vehicle siRNA + carboplatin, carboplatin]
Mean (SD) tumor weight (A549 lung tumors): 495 (49.5) mg

GFP siRNA: control siRNA targeting GFP; sense 5′-GGCUACGUCCAGGAGCGCACC-3′, antisense 5′-GGUGCGCUCCUGGACGUAGCC-3′ (alternating 2'-O-methyl on both strands, starting position not given here)
Mean (SD) tumor weight (A549 lung tumors): 710 (167.93) mg

Nrf2 siRNA: siRNA targeting human Nrf2, alternating 2-O′-Me; sense 5′-UCCCGUUUGUAGAUGACAA-3′, antisense 5′-UUGUCAUCUACAAACGGGA-3′ (alternating 2'-O-methyl on both strands, starting position not given here)
Nrf2 reporter activity in vivo (Nrf2): inhibited Nrf2 reporter activity in vivo | Mean (SD) tumor weight (A549 lung tumors): 802 (172.25) mg

REDD14: exemplary siRNA in aqueous solution directed against gene RTP801; sense GUGCCAACCUGAUGCAGCU, antisense AGCUGCAUCAGGUUGGCAC (chemistry not fully specified)
RTP801 expression in the lungs (RTP801; 50 μg siRNA instilled intranasally, FIG. 3b): reduction of RTP801 expression in the lungs | cigarette smoking induced apoptosis of lung septal cells (activated caspase staining, caspase 3 immunoblot) (RTP801; 1 week of cigarette smoking, FIG. 3c): partially protected from cigarette smoking induced apoptosis of lung septal cells | cigarette smoking induced inflammation (number of inflammatory bronchoalveolar lavage cells) (RTP801; 1 week of cigarette smoking, versus control siRNA REDD8, FIG. 3a): partially protected from cigarette smoking induced inflammation

REDD14Cy3.5: fluorescent-labelled (Cy3.5) REDD14, RTP801 inhibiting siRNA; sense GUGCCAACCUGAUGCAGCU, antisense AGCUGCAUCAGGUUGGCAC (Cy3.5 fluorescent label, position and strand not given here)
fluorescent label in lungs [1, 2]: detected in all sections taken from all lobes of the lungs | fluorescent label in right kidney [1, 2]: little label detected in the right kidney | distribution in lung, I5NP (hybridization) and REDD14Cy3.5 (fluorescence) compared ([1]; after oronasal inhalation): little difference in the distribution of the two test articles in lung
